Measured values: publication PMC9328652, “A novel class of fast‐acting antimalarial agents: Substituted 15‐membered azalides” (British Journal of Pharmacology, 2020)
Converted amounts (≈) assume the structure as drawn. Where two headings read alike, the source gives them in different places.

Columns and labels:
[1] = system: Plasmodium falciparum K1 (CQ,PY); assay: [3H]hypoxanthine incorporation antimalarial assay, strain K1; type: cell-based; conditions: K1, 72 h, read-out: IC50 K1 (CQ,PY)
Method: (§1) The activity of the test compounds against P. falciparum in vitro was determined using the tritiated hypoxanthine incorporation assay of Desjardins et al. and additionally modified by Milhous and Chulay (Chulay, Haynes, & Diggs, [1983]; Milhous, Weatherly, Bowdre, & Desjardins, [1985]).
(§2) Compounds were dissolved in DMSO and subsequently diluted in the culture medium (RPMI 1640) supplemented with 10% v/v human plasma. Serial 1:2 drug dilutions were prepared in triplicate in microtitre plates. Culture medium supplemented with 10% v/v human plasma and type A Rhesus positive human erythrocytes infected with P. falciparum strains was added to yield a haematocrit of 3% and a parasitaemia of 0.25–0.55%. The plates were incubated at 37°C in a modular incubator flushed with a mixture of 5% oxygen, 3% carbon dioxide, and 92% nitrogen for 48 h, and then [^3H]hypoxanthine was added to give a final concentration of 12.5–16 μCi·ml^−1. After incubation for additional 24 h, particulate matter was harvested on fibreglass strips and hypoxanthine incorporation determined by scintillation spectrophotometry. […] Delayed death experiments were performed by this standard method but extending the incubation time with the drug up to 96 h.

[2] = system: Plasmodium falciparum FCR3 (CQ,AT); assay: [3H]hypoxanthine incorporation antimalarial assay, strain FCR3; type: cell-based; conditions: FCR3, 72 h, read-out: IC50 FCR3 (CQ,AT)
Method: as §1, §2

[3] = system: Plasmodium falciparum Dd2 (CQ,Q,PY,S); assay: microbe, parasite or virus in culture; type: cell-based; conditions: for IC50: Plasmodium falciparum
Method: as §1, §2

[4] = system: Plasmodium falciparum V1/S (CQ,PY); assay: microbe, parasite or virus in culture; type: cell-based; conditions: 72 h, read-out: IC50 V1/S (CQ,PY)
Method: as §1, §2

[5] = system: Plasmodium falciparum T9/94 (CQ); assay: [3H]hypoxanthine incorporation antimalarial assay, strain T9/94; type: cell-based; conditions: 72 h, read-out: IC50 T9/94 (CQ)
Method: as §1, §2

[6] = system: Plasmodium falciparum 7G8 (CQ, PY); assay: [3H]hypoxanthine incorporation antimalarial assay, strain 7G8; type: cell-based; conditions: 7G8, 72 h, read-out: IC50 7G8 (CQ, PY)
Method: as §1, §2

haem polymerization = assay: Cell-free haem polymerization assay; type: biochemical; conditions: for IC50: cell‐free, N = 2
Method: Experiments were performed according to Tripathi, Khan, Walker, and […] ([2004]). Briefly, a solution of sodium acetate containing mono-oleoyl glycol and the corresponding inhibitor at different concentrations is placed in 1.5-ml reaction tubes. […] Multiple washing steps with Tris/SDS and bicarbonate, to remove monomeric haem and haem aggregates, allow quantification of de novo formed β-haematin.

[7] = Pharmacokinetics in P. falciparum infected and uninfected humanized mice; conditions: oral 10 mg·kg^−1, mean (SD); for Cmax / Tmax: NODscidβ2m^−/−, mouse, in vivo, po, 10 mg/kg; for Cmax: C max, blood; for Tmax: t max
Method: For pharmacokinetic (PK) studies in mice, animals were dosed either by intravenous (i.v.) or oral (p.o.) route.
(§3) For studies performed in Swiss albino CD‐1 mice (Harlan Laboratories, Spain), in order to obtain simultaneous blood and plasma profiles and blood‐to‐plasma (B/P) ratio, PK was performed using terminal sampling of N = 3 animals per time point and data evaluated using composite analysis. For studies performed in P. falciparum infected and non‐infected NODscidβ2m^−/− mice (Charles River Laboratories, France), only whole blood was obtained by serial sampling of N = 3 animals using tail puncture.
(§4) For analysis of whole blood samples, 25 μl of fresh blood were mixed with 25 μl of saponin solution (0.1% in water) and immediately frozen on dry ice. Plasma was obtained by centrifugation of fresh blood at 2,500 g for 10 min. Both blood and plasma samples were stored frozen at −80°C until analysis.
(§5) Diluted blood and plasma samples were processed under standard liquid–liquid extraction procedures using acetonitrile containing internal standard (clarithromycin, 100 ng·ml^−1) and analysed by LC–MS/MS in positive ion mode with electrospray. Samples were assayed for parent compound using a Sciex API 4000 and Sciex API‐2000 Triple Quadrupole Mass Spectrometer (Sciex, Division of MDS Inc., Toronto, Canada), against a series of matrix matched calibration curve standards, using multiple reaction monitoring (MRM) at the specific transitions for each compound. Non‐compartmental analysis was performed using WinNonlin, version 4.1 (Pharsight, Mountain View, CA), and the main pharmacokinetic parameters were estimated.

[8] = system: P. falciparum 3D7^0087/N9; assay: P. falciparum murine model (humanized mice), 4-day test; type: in vivo, Plasmodium falciparum
Method: The in vivo efficacy evaluation of the compounds was performed using a P. falciparum murine model of malaria in non‐myelodepleted NOD. Cg‐Prkdc^ scid –β2m^ tm1Unc ‐scid IL2R_null (NODscidβ2m^−/−) mice engrafted with human erythrocytes as described previously (Angulo‐Barturen et al., [2008]; Jimenez‐Diaz et al., [2005]; Jimenez‐Diaz et al., [2009]; Jimenez‐Diaz et al., [2009]), as this model enables testing of P. falciparum strains with high infectious burden. Briefly, groups of three mice engrafted with human erythrocytes were infected with 20 × 10^6 of P. falciparum 3D7^0087/N9‐infected erythrocytes/mouse by intravenous route. The mice were randomly assigned to their corresponding experimental groups. The treatment of oral doses QD for 4 days started at day 3 after infection. Parasitaemia was measured at days 3, 5, and 7 post‐infection. The therapeutic efficacy was expressed as the dose (mg·kg^−1) that reduced parasitaemia in peripheral blood of mice at day 7 after infection by 90% (ED90) with respect to vehicle‐treated mice. Chloroquine was included as quality control for each in vivo assay. Efficacy is expressed as the daily dose (ED90), or equivalent exposure (AUCED90), administered to mice necessary to reduce parasitaemia at day 7 by 90% with respect to vehicle‐treated mice. The ED90 is estimated by fitting a four‐decade logistic equation for the log10 [parasitaemia at day 7] versus the log10 [dose] using GraphPad Prism 5.01 (GraphPad Software Inc., San Diego, CA).

[9] = system: Plasmodium falciparum 3D7A (sensitive); set-up: method as in Pesic et al. ([2012]); conditions: 72 h of incubation; ref Pesic et al. ([2012]); cited from earlier work
[10] = system: Plasmodium falciparum W2 (chloroquine/pyrimethamine resistant); set-up: method as in Pesic et al. ([2012]); conditions: 72 h of incubation; ref Pesic et al. ([2012]); cited from earlier work
[11] = system: Plasmodium falciparum 3D7A (sensitive); assay: [3H]hypoxanthine incorporation antimalarial assay, strain 3D7A; type: cell-based; conditions: 72 h of incubation, N = 3
Method: as §1, §2

[12] = system: Plasmodium falciparum W2 (chloroquine/pyrimethamine resistant); assay: [3H]hypoxanthine incorporation antimalarial assay, strain W2; type: cell-based; conditions: W2, 72 h, read-out: Plasmodium falciparum IC50 W2
Method: as §1, §2

[13] = system: Plasmodium falciparum Dd2(AZ^R); assay: [3H]hypoxanthine incorporation antimalarial assay, azithromycin-resistant mutant Dd2(AZ^R); type: cell-based
Method: as §1, §2

HepG2 cells = assay: Cytotoxicity assay (MTS); type: cell-based, human; conditions: 24 h, N = 2
Method: The detailed protocol for cytotoxicity measurement is described elsewhere (Verbanac et al., [2005]). In brief, HepG2 cells were maintained in complete RPMI 1640 medium supplemented with 10% FBS at 37°C in a 5% CO2 atmosphere. Each culture in the 96‐well plates contained 50,000 cells which were exposed to serial dilutions (1:2) of compounds initially dissolved in DMSO and subsequently diluted in supplemented RPMI 1640 medium. Compounds were tested in duplicates, and plates were incubated for 24 h at 37°C in 5% CO2. The cytotoxicity assay was performed using the MTS CellTiter 96 AQueous One Solution Cell Proliferation Assay (Promega, USA). After the addition of MTS reagent and 2 h of incubation at 37°C in 5% CO2, the absorbance at 490 nm was recorded and Tox50 determined based on the obtained response curves.

H. influenzae ATCC49247 = assay: Antibacterial screen, broth microdilution; type: cell-based; conditions: Haemophilus influenzae
Method: (§6) Antibacterial activity of compounds was determined by a standard broth microdilution method (Clinical Laboratory Standard Institute CLSI, [2009]), except that for Streptococcus strains lysed blood was substituted with 5% horse serum in the testing medium. […] The activities are expressed as minimum inhibitory concentrations (MICs) in units of μg·ml^−1. […] The organisms tested represented macrolide sensitive Gram‐positive pathogens that are mainly targeted by macrolide antibiotics. Tested streptococci were clinical isolates Streptococcus pneumoniae SP030 and Streptococcus pyogenes 3565 from internal strain collection, and other strains were obtained from ATCC bioresource centre, Staphylococcus aureus ATCC13709, Haemophilus influenzae ATCC49247, and Moraxella catarrhalis ATCC23246. Double dilutions of tested compounds were prepared using TECAN Genesis 150. Bacteria were grown on appropriate agar plates (Becton Dickinson, USA)—Columbia agar with 5% sheep blood for streptococci and M. catarrhalis, Mueller‐Hinton chocolate agar for H. influenzae , and Mueller‐Hinton agar for staphylococci.

S. aureus ATCC13709 = assay: Antibacterial screen, broth microdilution; type: cell-based; conditions: Staphylococcus aureus
Method: as §6

S. pneumoniae SP030 = assay: Antibacterial screen, broth microdilution; type: cell-based; conditions: Streptococcus pneumoniae
Method: as §6

S. pyogenes 3565 = assay: Antibacterial screen, broth microdilution; type: cell-based; conditions: Streptococcus pyogenes
Method: as §6

M. catarrhalis ATCC23246 = assay: Antibacterial screen, broth microdilution; type: cell-based, Moraxella catarrhalis
Method: as §6

[14] = Pharmacokinetic studies in CD-1 mice
Method: For pharmacokinetic (PK) studies in mice, animals were dosed either by intravenous (i.v.) or oral (p.o.) route. For i.v. administration, the dosing volume was 10 ml·kg^−1 for a total dose of 12.5 mg·kg^−1, and for p.o. administration, the dosing volume was 20 ml·kg^−1 for a total dose of 12.5 mg·kg^−1. Dosing solutions were prepared in 100% saline ([…]) both for i.v. and p.o. administration for all compounds with the exception of compound 4 for which dosing solutions were prepared in PBS with 5% Cremophor‐EL (Fluka). Following i.v. dosing, blood samples were collected at 5 and 15 min, 1, 3, 6, 8, 24, and 48 h post‐dose. Following oral dosing, blood samples were collected at 15 and 30 min, 1, 2, 4, 6, 8, 24, and 48 h post‐dose.
as §3, §4, §5

[15] = Swiss albino CD-1, mouse, whole blood, iv, 12.5 mg/kg

## CCN(CC)CCCC(C)Nc1ccnc2cc(Cl)ccc12 (stereo not drawn) [Chloroquine, reference compound]
[1]
  IC50: 0.313 µM
[2]
  IC50: 0.138 µM
[3]; DD2, 72 h, read-out: IC50 Dd2 (CQ,Q,PY,S)
  IC50: 0.356 µM
[4]
  IC50: 0.388 µM
[5]
  IC50: 0.178 µM
[6]
  IC50: 0.194 µM
Haem polymerization
  IC50: 3.8 to 10.6 µM
[7]; infected (I) humanized mice
  Cmax: 210 ng/mL
  Tmax: 2.33 h
  DNAUC(0–24): 200 (13) ng*h·ml^−1·mg^−1·kg^−1
[7]; uninfected (U) humanized mice
  Cmax: 72.3 ng/mL
  Tmax: 1.92 h
  DNAUC(0–24): 63 (23) ng*h·ml^−1·mg^−1·kg^−1
[8]; 100 mg·kg^−1, groups of three mice
  mice with no detectable parasitaemia at day 35: all mice
[8]; humanized mice, oral
  AUCED90 (daily molar exposure for 90% parasitaemia reduction): 3.1 μM·h^−1·day^−1
[9]
  IC50: 0.016 µM
[10]
  IC50: 0.431 µM

## CC[C@H]1OC(=O)[C@H](C)[C@@H](O[C@H]2C[C@@](C)(OC)[C@@H](O)[C@H](C)O2)[C@H](C)[C@@H](O[C@@H]2O[C@H](C)C[C@H](N(C)C(C)=O)[C@H]2O)[C@](C)(O)C[C@@H](C)CN(CCCNC(=O)Nc2ccc3ccccc3c2)[C@H](C)[C@@H](O)[C@]1(C)O [Compound 4]
[11]
  IC50: 0.013 µM
[12]
  IC50: 0.019 µM
[3]; Dd2 and Dd2(AZ^R), 48 versus 96 h
  Delayed death phenotype: No
[3]; DD2, 48 h, read-out: IC50 Dd2 48 h
  IC50: 0.065 µM
[3]; DD2, 96 h, read-out: IC50 Dd2 96 h
  IC50: 0.07 µM
[13]; DD2, 48 h, read-out: IC50 Dd2(AZ^R) 48 h
  IC50: 0.068 µM
[13]; DD2, 96 h, read-out: IC50 Dd2(AZ^R) 96 h
  IC50: 0.053 µM
HepG2 cells
  Tox50 HepG2: 38 µM
Haem polymerization
  IC50: 46.3 µM
Haem polymerization; compared with compounds 1, 2, 3 and chloroquine
  weaker potency in haem polymerization: ~ 10 fold
H. influenzae ATCC49247
  MIC: > 64 µg/mL
S. aureus ATCC13709
  MIC: > 64 µg/mL
S. pneumoniae SP030
  MIC: > 64 µg/mL
S. pyogenes 3565
  MIC: > 64 µg/mL
M. catarrhalis ATCC23246
  activity against M. catarrhalis (in words): only minor activity
M. catarrhalis ATCC23246; Moraxella catarrhalis, ATCC23246, broth microdilution
  MIC: 32 µg/mL (≈ 32.3 µM)
[14]; CD‐1 mice, after oral administration
  B/P (ratio of AUC0−t in whole blood and plasma): 0.4
[14]; CD‐1 mice, blood, oral gavage 12.5 mg·kg^−1
  DNAUCPO (AUC0−t divided by the dose): 0.3 ng·kg·h/mL/mg
[14]; Swiss albino CD-1, mouse, whole blood, intravenous, 12.5 mg/kg
  half-life: 3.76 h
[14]; [15]
  Vd: 0.708 L/kg
  clearance: 14.8 mL/min/kg
[14]; Swiss albino CD-1, mouse, whole blood, po, 12.5 mg/kg, F, CD‐1 mice, 12.5 mg·kg^−1 i.v. and p.o.
  bioavailability: < 1%
